Here are results for one molecule from paper PMC3683333, “^11C-LY2428703, a positron emission tomographic radioligand for the metabotropic glutamate receptor 1, is unsuitable for imaging in monkey and human brains” (EJNMMI Research, 2013).

Details of data set [1]: method as in PMID 23135321. The conditions noted are these: rats; cited from earlier work.
Data set [2] can be described thus: Pharmacological effects of injection, monkey. Format: in vivo, rhesus monkeys. The conditions noted are these: after injection. On the procedure:
PET images were acquired using either the high-resolution research tomograph (HRRT) or the FOCUS 220 scanner (Siemens/CPS, Knoxville, TN, USA) for 120 min in 33 frames, with frame durations ranging from 30 s to 5 min, and correcting for attenuation and scatter. About 2 h before the PET scan, anesthesia was initiated with ketamine (10 mg/kg IM) and then maintained with 1% to 3% isoflurane. Electrocardiograph, body temperature, heart rate, and respiration rate were measured throughout the experiment. At baseline, the injected activity was 210 ± 51 MBq (specific activity at time of injection 43.2 ± 25.6 GBq/μmol, mass dose 6.9 ± 4.7 nmol or 0.62 ± 0.35 nmol/kg). Tissue time-activity curves were obtained from semi-automatic regions of interest encompassing the whole cerebellum and the rest of the brain. Brain uptake was expressed as standardized uptake value (SUV). Arterial input function was obtained for eight scans: four at baseline, two after blocking with nonradioactive LY2428703, one after blocking with DCPQ, and one after blocking with elacridar. Blood samples (0.5 mL each) were drawn through a port connected to the femoral artery at 15-s intervals until 2 min, followed by 1-mL samples at 3, 5, 10, 30, 60, 90, and 120 min. The plasma time-activity curve was corrected for the fraction of unchanged radioligand following the procedure detailed above.

A short description of data set [3]: Arterial plasma analysis after injection, human. Format: in vivo. On the procedure:
Plasma analyses were performed on a reverse-phase chromatography C18 column (Novapak, 4 μm, 100 × 8 mm, Waters Corp. Milford, MA, USA) using Radial-Pak® compression module RCM-100 with a sentry pre-column. Human plasma analyses were performed with a mobile phase of […], at a flow rate of 2.5 mL/min; nonhuman primate plasma samples were analyzed with a mobile phase of MeOH/H2O/Et3N, 72.5:27.5:0.1 by volume, at a flow rate of 1.5 mL/min. To compare the outcome from both systems, elution volume is reported rather than retention time.
Arterial plasma was analyzed as previously described. Briefly, after ^11C-LY2428703 injection into either human or nonhuman primate, the input function was determined by periodically drawing anticoagulated blood samples. Blood aliquots were removed so that the γ-counter could provide information necessary for vascular correction. The remaining blood was then centrifuged, and plasma (450 μL) aliquots were removed and placed in acetonitriles (720 μL/ea) spiked with carrier LY2428703. The samples were mixed well, 100 μL water aliquots were added, and then, the sample was further mixed. The samples were counted in the γ-counter and centrifuged at 10,000×g for 1 min. The clear supernatant liquids were injected onto the radio-HPLC as described above. The precipitates were then counted for radioactivity to allow the calculation of the efficiency of recovery of radioactivity in the acetonitrile. Human plasma samples were separated with a mobile phase of higher polarity ([…]) to ensure that the parent radiochromatographic peak comprised a single radiochemical species.
(§1) PET images were acquired using the GE Advance scanner (GE Healthcare, Milwaukee, WI, USA) for 120 min. An 8-min ^68Ge transmission scan was obtained before the injection of the radiotracer for attenuation correction. The mean injected activity was 328 ± 12 MBq. The specific activity at the time of injection was 87.2 ± 34.7 GBq/μmol, which corresponded to 5.5 ± 2.3 nmol (0.082 ± 0.037 nmol/kg) of carrier. Blood samples (1 mL each) were drawn from the radial artery at 15-s intervals until 150 s, followed by 3-mL samples at 3, 4, 6, 8, 10, 15, 20, 30, 40, and 50 min, and 4.5 mL at 60, 75, 90, and 120 min. The unchanged parent fraction in plasma and fP of ^11C-LY2428703 were determined as described above.

The target in data set [4] is T1, mGluR1 (Macaca mulatta, UniProt I2CU04).
T1 construct: P2 membrane fractions were prepared from the cerebella of; from tissue; host or cells: rhesus monkey cerebellum, P2 membrane fraction
T1 sequence (I2CU04 19-1195): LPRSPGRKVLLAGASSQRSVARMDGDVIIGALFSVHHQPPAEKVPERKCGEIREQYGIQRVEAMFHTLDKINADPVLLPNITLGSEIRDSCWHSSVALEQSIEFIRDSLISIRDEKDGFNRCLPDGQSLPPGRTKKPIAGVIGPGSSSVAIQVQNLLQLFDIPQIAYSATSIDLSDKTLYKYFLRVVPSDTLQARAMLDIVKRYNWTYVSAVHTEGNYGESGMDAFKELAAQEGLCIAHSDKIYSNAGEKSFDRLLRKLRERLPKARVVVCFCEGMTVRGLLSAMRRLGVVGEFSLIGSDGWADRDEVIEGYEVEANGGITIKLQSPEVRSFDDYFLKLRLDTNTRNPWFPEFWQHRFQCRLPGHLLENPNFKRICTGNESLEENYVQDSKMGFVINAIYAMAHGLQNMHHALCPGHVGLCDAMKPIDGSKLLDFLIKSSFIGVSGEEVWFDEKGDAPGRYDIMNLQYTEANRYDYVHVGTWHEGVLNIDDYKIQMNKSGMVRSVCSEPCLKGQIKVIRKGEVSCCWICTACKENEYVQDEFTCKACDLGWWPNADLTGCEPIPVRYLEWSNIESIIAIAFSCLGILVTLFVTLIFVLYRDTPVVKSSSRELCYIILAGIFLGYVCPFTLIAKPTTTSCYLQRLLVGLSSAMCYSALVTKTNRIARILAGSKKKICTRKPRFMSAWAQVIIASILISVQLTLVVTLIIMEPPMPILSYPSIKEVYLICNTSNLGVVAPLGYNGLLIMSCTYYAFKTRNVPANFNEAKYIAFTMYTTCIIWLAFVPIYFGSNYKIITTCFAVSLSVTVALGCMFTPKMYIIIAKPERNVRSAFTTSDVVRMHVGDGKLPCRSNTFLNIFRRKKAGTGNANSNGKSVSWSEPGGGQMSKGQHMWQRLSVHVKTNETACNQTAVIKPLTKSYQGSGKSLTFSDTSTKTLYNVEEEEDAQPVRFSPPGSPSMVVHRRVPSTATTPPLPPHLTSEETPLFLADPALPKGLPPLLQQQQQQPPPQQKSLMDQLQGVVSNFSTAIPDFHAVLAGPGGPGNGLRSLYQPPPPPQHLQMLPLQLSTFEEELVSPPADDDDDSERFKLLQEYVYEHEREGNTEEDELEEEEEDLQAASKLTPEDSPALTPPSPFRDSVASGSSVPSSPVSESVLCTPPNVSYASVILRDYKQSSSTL
The experiment in a line: Saturation binding assay with [^3H]LY456066, monkey cerebellar membranes. The conditions noted are these: monkeys. Further details: species or system rhesus monkeys. The procedure: P2 membrane fractions were prepared from the cerebella of male Sprague–Dawley rats (n = 3), male rhesus monkeys (n = 3), and female humans (n = 4). […] Nonspecific binding was defined by heterologous displacement of 1 μM LY480084 (mGlu1 antagonist) in select wells. Plates were incubated on ice for 75 min and membranes harvested on 0.3% polyethylenimine pretreated Wallac filter mats using a Tomtec Harvester MachII (Tomtec, Hamden, CT, USA). Dissociation constant (KD) and receptor density (Bmax) values were obtained in GraphPad Prism using standard nonlinear one-site binding equations. Data are presented as mean ± SEM (n = 3 to 4); one-way analysis of variance followed by Tukey's post hoc test.

Data set [5] is described as follows: Plasma free fraction by ultrafiltration, human. The conditions noted are these: humans, n = 3. Format: in vitro ADME. On the procedure:
The plasma free fraction (fp) of ^11C-LY2428703 was measured by ultrafiltration through membrane filters (Centrifree; Millipore, Billerica, MA, USA) as previously described. Briefly, about 740 kBq of ^11C-LY2428703 (approximately 5 μL) was added to 650 μL of plasma. The mixture was incubated at room temperature for 10 min and then processed as described previously. When radioactivities for the filter components were high, they were allowed to decay until they were within the optimal range of the γ-counter. Determining the free fraction during preblocking was done by drawing blood samples after the preblocking treatments were initiated but immediately before administering the radioligand.
as §1

For data set [6] the following is noted: room temperature, octanol; cited from earlier work.
The subject of data set [7] is P-gp. Also on record: method as in PMID 23135321. The conditions noted are these: previous in vitro analyses; cited from earlier work.
The nature of data set [8]: In vitro stability in human blood and plasma. Type of data set: in vitro ADME. The conditions noted are these: room temperature, 30 min. The procedure:
Nonradioactive anticoagulated blood was obtained on the day of study from either human or nonhuman primates. Aliquots of ^11C-LY2428703 (about 150 kBq) were added to 0.5 mL of whole blood or 0.5 mL of plasma. Samples were incubated at room temperature for 30 min, after which either 450 μL of the radioactive plasma was added to 720 μL of acetonitrile or 200 μL of the radioactive whole blood was added to 300 μL of water. The tube containing the blood suspension was shaken well to mix and lyse the blood cells. Seven hundred and twenty microliters of acetonitrile was subsequently added and mixed well to precipitate the proteins, followed by 100 μL of water, which was again re-mixed. Radioactivity in the tubes was measured in a gamma counter and then centrifuged at 10,000×g for 1 min. The clear supernatant liquid was injected into the high-performance liquid chromatography (HPLC) column and the precipitate counted to calculate the recovery of radioactivity into the acetonitrile.
The stability of the radioligand in whole blood or plasma was calculated as the ratio of the HPLC % composition of samples divided by the radiochemical purity of the radioligand.

Read-outs that look alike come from different tables or passages of the source. Marks after values point to notes of the source that are not given here.

As a reminder, the LogD is the decadic logarithm of the distribution of all forms, ionised or not, between an organic phase and buffer at a given pH. Consider `Cc1c(-c2ccc(O[11CH3])cc2)nsc1NC(=O)[C@@H]1C[C@H]1C` [^11C-LY2428703], for which the figures for the “fp (plasma free fraction)” value in data set [1] and in data set [5] were 2.7^a % and 0.094%, respectively. In addition, the “changes in pulse/heart rate, respiratory rate, electrocardiogram” value in data set [2] is “no significant changes”. This molecule came in with a peak plasma concentration in data set [3] of 33 ± 5 SUV. Moreover, the “time of peak plasma concentration” value in data set [3] came to 1.5 ± 0 min. Moreover, in data set [3] (at 2 h), the radiometabolites in plasma result is “approximately 1%”. For the same molecule, the “parent radioligand as share of total blood radioactivity” value in data set [3] (entire 2-h imaging period) was roughly 99%. For the same molecule, in data set [4], the “fp × Bmax/KD (=VS), effective BP” value came out at 0.161. For the same molecule, the LogD in data set [6] was 4.02. In data set [7], the “substrate for P-gp” value is listed as “not a substrate”. Besides, the tracer stability in data set [8] (human plasma) is 99.4 ± 1.4%; in data set [8] (human whole blood) it was 99.5 ± 1.1%.
